From PubChem BioAssay (NCI)
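Protocol summary: plate cells (96-well), add compound at 5 concentrations, incubate 48 h, interpolate endpoints linearly. TGI: total growth inhibition.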

What was measured:
Experiment in all cases: DTP human tumour cell line panel, 48 h
XF 498 CNS = test system: XF 498 CNS
DMS 114 small cell lung = test system: DMS 114 small cell lung
LXFL 529 NSCLC = test system: LXFL 529 NSCLC
DMS 273 small cell lung = test system: DMS 273 small cell lung
DLD-1 colon = test system: DLD-1 colon
RXF-631 renal = test system: RXF-631 renal
M19-MEL melanoma = test system: M19-MEL melanoma
KM20L2 colon = test system: KM20L2 colon
HOP-18 NSCLC = test system: HOP-18 NSCLC

SMILES	TGI (XF 498 CNS)	TGI (DMS 114 small cell lung)	TGI (LXFL 529 NSCLC)	TGI (DMS 273 small cell lung)	TGI (DLD-1 colon)	TGI (RXF-631 renal)	TGI (M19-MEL melanoma)	TGI (KM20L2 colon)	TGI (HOP-18 NSCLC)
N#CCCN(c1ccc(C=Nc2cccc([N+](=O)[O-])c2)cc1)S(=O)(=O)c1ccccc1	> 100 µM	> 100 µM	> 100 µM	> 100 µM	> 100 µM	> 100 µM			
CCOC(=O)C(OCC1CC=CCC1)Sc1ccccc1 (stereo not given)		> 100 µM	> 100 µM	> 100 µM	> 100 µM		> 100 µM	> 100 µM	> 100 µM
O=C1O[C@@H](c2ccccc2)C[C@@H]1CN1CCOCC1	> 100 µM	> 100 µM	> 100 µM		> 100 µM	> 100 µM		> 100 µM	
CC(C)C(Sc1nc(-c2ccccc2)c(-c2ccccc2)[nH]1)C(=O)NNC(=S)Nc1ccccc1 (stereo not given)	32.7 µM		33.8 µM	34.8 µM	52 µM		33.4 µM	37.6 µM	
COC1O[C@H]2CCN(C(=O)OCc3ccccc3)[C@H]2[C@H]1OCc1ccccc1 (stereo not given in full)	> 100 µM	> 86.2 µM	> 100 µM	> 100 µM	> 100 µM		> 100 µM	> 100 µM	> 100 µM
Cc1cc(=O)cc2sc3c(C)cccc3nc1-2			32.9 µM	> 100 µM	46.1 µM	> 100 µM	36.5 µM		> 100 µM
Cc1c(Cl)cccc1NC(=O)C(=O)C1C(=O)CC(C)(C)CC1=O		> 100 µM	> 100 µM	> 100 µM	> 100 µM	> 100 µM	> 100 µM	> 100 µM	> 100 µM
COc1ccc(/C(=C/n2ccnc2)C(=O)c2ccc(OC)c(OC)c2)cc1	> 100 µM	> 100 µM	> 100 µM	> 100 µM	> 100 µM		> 100 µM	> 100 µM	
CCSc1nnc(CSc2nc(-c3ccccc3)c(-c3ccccc3)[nH]2)n1-c1ccccc1	35.3 µM	39.1 µM	67 µM	66.3 µM	37 µM	63.3 µM	33.3 µM	32.1 µM	30.4 µM
C[N+](C)(C)CC(=O)N/N=c1\cc(C(=O)Nc2ccc(N=O)cc2C#N)oc2cc(O)ccc12	> 100 µM	> 100 µM	> 100 µM	> 100 µM	> 100 µM	> 100 µM	> 100 µM	> 100 µM	> 100 µM
C=CC(=O)c1ccc2c(c1)OCCOCCOCCOCCOCCO2	28.7 µM	41 µM	30.8 µM	29.1 µM	30.1 µM		32.2 µM	> 100 µM	30.2 µM
CCOC(=O)C1=C(C)N(c2ccccc2)C2=C(C(=O)N(c3ccccc3)C2c2ccccc2)C1c1ccccc1 (stereo not given)	> 100 µM	> 100 µM	> 100 µM	> 100 µM	> 100 µM	> 100 µM	> 100 µM	> 100 µM	> 100 µM
COc1ccc(C2C(Cl)C(=O)N2NC(=O)c2ccc(NC(C)=O)cc2)cc1 (stereo not given)	> 100 µM		> 100 µM	> 100 µM	> 100 µM		> 100 µM	> 100 µM	
COC1(C)CC2N(C(=O)c3ccccc3)N=C(c3ccccc3)CC2(C)O1 (stereo not given)	> 100 µM	> 100 µM	> 100 µM		> 100 µM	> 100 µM		> 100 µM	
O=C1CC2(C[C@@H]3CCCCCCCCC[C@@H](C3)C2)N1 (stereo not given in full)	24.9 µM	31.6 µM	29.7 µM	25.3 µM			28.8 µM	31.4 µM	22.6 µM
COC(=O)c1cc(CC(C)C)c2c(c1)[nH]c1ccccc12	> 100 µM	> 100 µM	> 100 µM	> 100 µM	> 100 µM		> 100 µM	> 100 µM	
